Key:
[1] = target: T1, Gonadotropin-releasing hormone receptor (Homo sapiens, UniProt P30968); assay: Displacement of [125I]Pro-N-Et-GnRH from human cloned GnRH receptor expressed in HEK cells; format: cell-based, HEK293
T1 sequence (P30968 whole entry): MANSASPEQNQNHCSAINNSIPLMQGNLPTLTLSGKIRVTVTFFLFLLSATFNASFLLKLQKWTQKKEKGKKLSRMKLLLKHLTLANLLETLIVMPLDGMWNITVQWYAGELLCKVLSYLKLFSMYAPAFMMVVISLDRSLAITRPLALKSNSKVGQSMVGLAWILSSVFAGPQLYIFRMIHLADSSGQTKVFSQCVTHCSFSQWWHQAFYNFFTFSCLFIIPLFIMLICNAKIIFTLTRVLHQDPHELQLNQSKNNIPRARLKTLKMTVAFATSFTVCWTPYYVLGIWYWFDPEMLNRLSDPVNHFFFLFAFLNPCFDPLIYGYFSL

[2] = target: Cytochrome P450 3A4 (Homo sapiens, UniProt P08684); assay: Inhibition of recombinant CYP3A4 by microtiter plate-based fluorimetric assay; format: ADME
Chain of Cytochrome P450 3A4 (P08684 whole entry): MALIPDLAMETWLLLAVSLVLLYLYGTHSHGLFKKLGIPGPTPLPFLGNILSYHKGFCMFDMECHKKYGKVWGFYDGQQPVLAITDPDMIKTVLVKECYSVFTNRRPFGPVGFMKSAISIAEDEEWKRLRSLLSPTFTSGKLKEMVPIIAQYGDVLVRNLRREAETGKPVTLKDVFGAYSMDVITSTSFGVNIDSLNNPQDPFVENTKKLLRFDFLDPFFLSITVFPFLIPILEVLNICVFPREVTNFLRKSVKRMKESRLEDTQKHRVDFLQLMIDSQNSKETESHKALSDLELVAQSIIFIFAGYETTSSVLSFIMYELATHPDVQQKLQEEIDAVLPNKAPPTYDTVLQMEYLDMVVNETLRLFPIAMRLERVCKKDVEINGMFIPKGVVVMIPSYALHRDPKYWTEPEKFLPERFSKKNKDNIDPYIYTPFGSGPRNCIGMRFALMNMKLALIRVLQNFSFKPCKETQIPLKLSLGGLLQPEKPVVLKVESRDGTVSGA

[3] = target: CYP3A4 (Homo sapiens, UniProt P08684); assay: Inhibition of recombinant CYP3A4 at 200 uM by microtiter plate-based fluorimetric assay; format: ADME
Chain of CYP3A4 (P08684 whole entry): as above

[4] = target: T1, Gonadotropin-releasing hormone receptor; assay: Displacement of [125I]tyr5,D-Leu6,NMeLeu7-GnRH from human cloned GnRH receptor expressed in RBL cells; format: cell-based
[5] = target: T1, Gonadotropin-releasing hormone receptor; assay: Antagonist activity at human GnRH receptor expressed in RBL cells assessed as inhibition of GnRH-stimulated [3H]inositol phosphate hydrolysis by whole cell assay; format: functional, cell-based
[6] = Oral bioavailability in Sprague-Dawley rat at 10 mg/kg; format: ADME, organism-based; settings: in vivo
[7] = Clearance in Sprague-Dawley rat at 2.5 mg/kg, iv; format: ADME, organism-based; design: dose 2.5 mg/kg, route intravenous; settings: in vivo
[8] = Half life in Sprague-Dawley rat at 2.5 mg/kg, iv; format: ADME, organism-based; design: dose 2.5 mg/kg, route intravenous; settings: in vivo
[9] = Permeability from apical to basolateral side of human Caco-2 cell membrane; format: ADME, cell-based

## N[C@@H](Cn1c(=O)c(-c2cccc(OCCCCCC(=O)O)c2F)cn(Cc2c(F)cccc2C(F)(F)F)c1=O)c1ccccc1
[1]
  Ki: 33 nM
[2]
  IC50: 25000 nM

## Cc1c(-c2cccc(OCC(=O)O)c2F)c(=O)n(C[C@H](N)c2ccccc2)c(=O)n1Cc1c(F)cccc1C(F)(F)F
[3]
  inhibition at 200 µM: 16%
[4]
  Ki: 52 nM

## CN[C@@H](Cn1c(=O)c(-c2cccc(OCCCN(C)CC(=O)O)c2F)c(C)n(Cc2c(F)cccc2C(F)(F)F)c1=O)c1ccccc1
[4]
  Ki: 35 nM

## N[C@@H](Cn1c(=O)c(-c2cccc(OCCCCC(=O)O)c2F)cn(Cc2c(F)cccc2C(F)(F)F)c1=O)c1ccccc1
[1]
  Ki: 34 nM
[2]
  IC50: 36000 nM

## Cc1c(-c2cccc(OCCCCCC(=O)O)c2)c(=O)n(C[C@H](N)c2ccccc2)c(=O)n1Cc1c(F)cccc1C(F)(F)F
[5]
  IC50: 2.8 nM
[1]
  Ki: 2.1 nM
[4]
  Ki: 1.1 nM
[6]
  bioavailability: 4.8%
[7]
  clearance: 36 mL/min/kg
[8]
  half-life: 4.9 h

## CN[C@@H](Cn1c(=O)c(-c2cccc(OCCCNCC(=O)O)c2F)c(C)n(Cc2c(F)cccc2C(F)(F)F)c1=O)c1ccccc1
[4]
  Ki: 155 nM
[2]
  IC50: 33000 nM

## Cc1c(-c2cccc(OCCCCC(=O)O)c2)c(=O)n(C[C@H](N)c2ccccc2)c(=O)n1Cc1c(F)cccc1C(F)(F)F
[9]
  Papp A→B: 0.1 ×10⁻⁶ cm/s
[5]
  IC50: 26 nM
[1]
  Ki: 4.1 nM
[6]
  bioavailability: 1.1%
[7]
  clearance: 7.5 mL/min/kg
[8]
  half-life: 10 h
[2]
  IC50: 22000 nM

## CN[C@@H](Cn1c(=O)c(-c2cccc(OCCNCC(=O)O)c2F)c(C)n(Cc2c(F)cccc2C(F)(F)F)c1=O)c1ccccc1
[4]
  Ki: 27 nM

## Cc1c(-c2cccc(OCCC(=O)O)c2F)c(=O)n(C[C@H](N)c2ccccc2)c(=O)n1Cc1c(F)cccc1C(F)(F)F
[4]
  Ki: 10.1 nM

## CN[C@@H](Cn1c(=O)c(-c2cccc(OCCCCC(=O)O)c2F)c(C)n(Cc2c(F)cccc2C(F)(F)F)c1=O)c1ccccc1
[9]
  Papp A→B: 1.2 ×10⁻⁶ cm/s
[1]
  Ki: 1.2 nM
[6]
  bioavailability: 13%
[7]
  clearance: 50 mL/min/kg
[8]
  half-life: 5.1 h
[2]
  IC50: 13000 nM

## Cc1c(-c2cccc(OCCCCCC(=O)O)c2F)c(=O)n(C[C@H](N)c2ccccc2)c(=O)n1Cc1c(F)cccc1C(F)(F)F
[5]
  IC50: 0.6 nM
[1]
  Ki: 1.3 nM
[4]
  Ki: 1.2 nM
[6]
  bioavailability: 3.7%
[7]
  clearance: 21 mL/min/kg
[8]
  half-life: 2.9 h
[2]
  IC50: 8200 nM

## Cc1c(-c2cccc(OCCCC(=O)O)c2F)c(=O)n(C[C@H](N)c2ccccc2)c(=O)n1Cc1c(F)cccc1C(F)(F)F
[3]
  inhibition at 200 µM: 21%
[4]
  Ki: 4.7 nM

## Cc1c(-c2cccc(OCCCC(=O)O)c2)c(=O)n(C[C@H](N)c2ccccc2)c(=O)n1Cc1c(F)cccc1C(F)(F)F
[5]
  IC50: 23 nM
[4]
  Ki: 7.5 nM

## Cc1c(-c2cccc(OCCCCC(=O)O)c2F)c(=O)n(C[C@H](N)c2ccccc2)c(=O)n1Cc1c(F)cccc1C(F)(F)F
[9]
  Papp A→B: 0.1 ×10⁻⁶ cm/s
[5]
  IC50: 2.6 nM
[1]
  Ki: 1.2 nM
[4]
  Ki: 1 nM
[6]
  bioavailability: 6.6%
[7]
  clearance: 14 mL/min/kg
[8]
  half-life: 6.6 h

## CN[C@@H](Cn1c(=O)c(-c2cccc(OCCCOCC(=O)O)c2F)c(C)n(Cc2c(F)cccc2C(F)(F)F)c1=O)c1ccccc1
[4]
  Ki: 38 nM
[2]
  IC50: 22000 nM

## CN[C@@H](Cn1c(=O)c(-c2cccc(OCCOCC(=O)O)c2F)c(C)n(Cc2c(F)cccc2C(F)(F)F)c1=O)c1ccccc1
[4]
  Ki: 9.3 nM
[2]
  IC50: 10000 nM

## Cc1c(-c2cccc(OCCCCC(=O)O)c2F)c(=O)n(C[C@@H](c2ccccc2)N(C)C)c(=O)n1Cc1c(F)cccc1C(F)(F)F
[9]
  Papp A→B: 17 ×10⁻⁶ cm/s
[1]
  Ki: 15 nM
[2]
  IC50: 42000 nM

## CN[C@@H](Cn1c(=O)c(-c2cccc(OCCN(C)CC(=O)O)c2F)c(C)n(Cc2c(F)cccc2C(F)(F)F)c1=O)c1ccccc1
[4]
  Ki: 98 nM

## CN[C@@H](Cn1c(=O)c(-c2cccc(OCCC(C)(C)CC(=O)O)c2F)c(C)n(Cc2c(F)cccc2C(F)(F)F)c1=O)c1ccccc1
[4]
  Ki: 29 nM
[2]
  IC50: 22000 nM

From ChEMBL document CHEMBL1156583, “Zwitterionic uracil derivatives as potent GnRH receptor antagonists with improved pharmaceutical properties” (Bioorg Med Chem Lett, 2008)
